Consider one molecule from the NIST ThermoML archive (doi:10.1016/j.fluid.2013.02.001).

The conditions of the series: Crystal; Phase equilibration.

± gives the expanded uncertainty stated by the source.

On to `O=C([O-])CCP(=O)(O)c1ccccc1.[Na+]` [monosodium 3-(hydroxyphenylphosphinyl)propanoate], for which the Normal melting temperature turned out to be 231 ± 0.7 °C.
